# Data as given in ChEMBL document CHEMBL4219210, “Discovery and biological evaluation of novel pyrazolopyridine derivatives as potent and orally available PI3Kδ inhibitors” (Bioorg Med Chem, 2018).
# Columns and labels:
# [1] = Stability in BALB/c mouse plasma assessed as parent compound remaining at 2 uM after 16 hrs in presence of NaF by LC-MS/MS analysis; assay type: ADME, cell-free; details: read-out: Stability
# [2] = Stability in BALB/c mouse plasma assessed as parent compound remaining at 2 uM after 16 hrs in absence of NaF by LC-MS/MS analysis; assay type: ADME, cell-free; details: read-out: Stability
# Homo sapiens = organism: Homo sapiens; experiment: Selectivity ratio of IC50 for recombinant human N-terminal His6-tagged full length PI3K p110alpha/untagged recombinant full length human p85alpha to IC50 for recombinant human full length N-terminal His6-tagged PI3K p110delta/untagged recombinant full length human p85alpha expressed in baculovirus infected Sf21 insect cells
# [3] = target: PI3-kinase p110-delta/p85-alpha (Homo sapiens, UniProt O00329); experiment: Inhibition of recombinant human full length N-terminal His6-tagged PI3K p110delta/untagged recombinant full length human p85alpha expressed in baculovirus infected Sf21 insect cells using PIP2 as substrate after 35 to 40 mins by HTRF assay
# Sequence of PI3-kinase p110-delta/p85-alpha (P27986 whole entry): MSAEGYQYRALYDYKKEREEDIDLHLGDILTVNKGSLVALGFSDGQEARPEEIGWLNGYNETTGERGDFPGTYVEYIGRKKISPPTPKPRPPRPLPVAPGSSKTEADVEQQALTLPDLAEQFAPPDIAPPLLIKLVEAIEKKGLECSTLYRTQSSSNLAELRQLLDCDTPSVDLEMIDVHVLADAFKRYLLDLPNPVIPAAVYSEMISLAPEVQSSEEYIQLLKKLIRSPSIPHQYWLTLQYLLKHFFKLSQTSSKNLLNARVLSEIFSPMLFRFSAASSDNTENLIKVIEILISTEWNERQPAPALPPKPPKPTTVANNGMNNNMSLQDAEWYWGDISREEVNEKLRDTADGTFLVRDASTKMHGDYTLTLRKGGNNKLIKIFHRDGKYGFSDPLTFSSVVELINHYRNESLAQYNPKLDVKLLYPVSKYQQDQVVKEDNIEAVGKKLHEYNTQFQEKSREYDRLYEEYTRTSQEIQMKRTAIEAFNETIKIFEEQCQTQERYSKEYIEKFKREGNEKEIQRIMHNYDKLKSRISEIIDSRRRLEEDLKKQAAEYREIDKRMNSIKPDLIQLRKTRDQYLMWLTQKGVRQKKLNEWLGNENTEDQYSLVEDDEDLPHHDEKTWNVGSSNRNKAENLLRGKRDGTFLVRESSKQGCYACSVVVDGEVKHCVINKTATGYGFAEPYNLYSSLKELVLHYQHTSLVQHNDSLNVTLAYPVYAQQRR
# Sequence of PI3-kinase p110-delta/p85-alpha (O00329 whole entry): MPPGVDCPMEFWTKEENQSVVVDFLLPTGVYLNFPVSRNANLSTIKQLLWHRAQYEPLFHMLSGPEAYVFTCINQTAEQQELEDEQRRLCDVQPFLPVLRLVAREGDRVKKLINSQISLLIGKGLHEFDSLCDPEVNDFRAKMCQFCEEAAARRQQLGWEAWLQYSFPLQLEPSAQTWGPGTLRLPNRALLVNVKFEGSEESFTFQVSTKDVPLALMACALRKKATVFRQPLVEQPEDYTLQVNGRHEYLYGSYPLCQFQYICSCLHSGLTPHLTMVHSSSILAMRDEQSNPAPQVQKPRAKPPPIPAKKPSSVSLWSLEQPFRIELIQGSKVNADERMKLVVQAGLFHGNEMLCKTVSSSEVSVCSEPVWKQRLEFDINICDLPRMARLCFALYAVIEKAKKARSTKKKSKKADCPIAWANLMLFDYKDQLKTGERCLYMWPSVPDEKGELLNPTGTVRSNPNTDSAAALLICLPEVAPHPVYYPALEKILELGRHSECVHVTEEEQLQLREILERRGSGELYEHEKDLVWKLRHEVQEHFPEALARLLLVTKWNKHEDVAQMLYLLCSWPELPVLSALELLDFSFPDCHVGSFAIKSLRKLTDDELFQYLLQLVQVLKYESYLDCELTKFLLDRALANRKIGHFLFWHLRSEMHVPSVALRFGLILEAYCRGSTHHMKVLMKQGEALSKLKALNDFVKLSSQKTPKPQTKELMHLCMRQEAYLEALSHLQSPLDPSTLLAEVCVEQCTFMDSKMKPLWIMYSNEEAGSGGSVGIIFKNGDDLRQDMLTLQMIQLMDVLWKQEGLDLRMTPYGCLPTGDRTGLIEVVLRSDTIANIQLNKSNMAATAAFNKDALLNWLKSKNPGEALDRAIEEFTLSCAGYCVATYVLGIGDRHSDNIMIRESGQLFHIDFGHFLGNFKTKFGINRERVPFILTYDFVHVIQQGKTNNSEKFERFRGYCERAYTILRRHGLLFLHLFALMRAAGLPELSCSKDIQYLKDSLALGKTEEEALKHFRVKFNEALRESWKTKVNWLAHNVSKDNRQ
# PI3K p110 beta/p85 alpha = PI3K p110 beta/p85 alpha (Homo sapiens, UniProt P42338); experiment: Inhibition of recombinant human full length N-terminal His6-tagged PI3K p110beta/untagged recombinant full length human p85alpha expressed in baculovirus infected Sf21 insect cells using PIP2 as substrate after 35 to 40 mins by HTRF assay
# Sequence of PI3K p110 beta/p85 alpha (P27986 whole entry): as the sequence (P27986 whole entry) above
# Sequence of PI3K p110 beta/p85 alpha (P42338 whole entry): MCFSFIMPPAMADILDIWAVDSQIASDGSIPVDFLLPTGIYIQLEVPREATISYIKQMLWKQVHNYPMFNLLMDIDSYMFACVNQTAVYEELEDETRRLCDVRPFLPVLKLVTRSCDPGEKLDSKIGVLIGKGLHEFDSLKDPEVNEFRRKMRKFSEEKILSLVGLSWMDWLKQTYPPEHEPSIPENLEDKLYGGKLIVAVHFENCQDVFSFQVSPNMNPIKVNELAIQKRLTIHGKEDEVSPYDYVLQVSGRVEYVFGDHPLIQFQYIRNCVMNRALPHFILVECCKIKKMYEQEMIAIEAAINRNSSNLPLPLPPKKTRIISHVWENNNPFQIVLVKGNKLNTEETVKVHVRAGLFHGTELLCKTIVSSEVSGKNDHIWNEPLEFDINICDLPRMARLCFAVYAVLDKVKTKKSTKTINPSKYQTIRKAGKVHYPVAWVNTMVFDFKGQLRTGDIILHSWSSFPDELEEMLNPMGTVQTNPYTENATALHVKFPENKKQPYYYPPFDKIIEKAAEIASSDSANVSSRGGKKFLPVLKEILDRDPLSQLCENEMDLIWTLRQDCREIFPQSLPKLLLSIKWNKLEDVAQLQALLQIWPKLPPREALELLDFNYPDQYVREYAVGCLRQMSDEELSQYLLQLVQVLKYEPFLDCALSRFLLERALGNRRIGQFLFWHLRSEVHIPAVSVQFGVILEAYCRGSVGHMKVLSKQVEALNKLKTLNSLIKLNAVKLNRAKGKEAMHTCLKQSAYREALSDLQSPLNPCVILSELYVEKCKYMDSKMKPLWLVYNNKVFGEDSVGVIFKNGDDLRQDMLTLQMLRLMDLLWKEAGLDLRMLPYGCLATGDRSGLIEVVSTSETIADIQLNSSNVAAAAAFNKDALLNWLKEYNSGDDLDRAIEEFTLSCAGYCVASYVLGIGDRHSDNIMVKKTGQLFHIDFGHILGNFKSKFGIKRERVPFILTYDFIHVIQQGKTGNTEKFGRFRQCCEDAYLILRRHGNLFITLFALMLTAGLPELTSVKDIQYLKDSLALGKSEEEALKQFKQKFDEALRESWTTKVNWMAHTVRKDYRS
# [4] = AUC in BALB/c mouse plasma at 3 mg/kg, po by LC-MS/MS analysis; assay type: ADME, organism-based
# [5] = Cmax in BALB/c mouse plasma at 1 mg/kg, iv followed by po dosing at 3 mg/kg by LC-MS/MS analysis; assay type: ADME, organism-based
# [6] = Tmax in BALB/c mouse plasma at 1 mg/kg, iv followed by po dosing at 3 mg/kg by LC-MS/MS analysis; assay type: ADME, organism-based
# [7] = Half life in BALB/c mouse plasma at 1 mg/kg, iv followed by po dosing at 3 mg/kg by LC-MS/MS analysis; assay type: ADME, organism-based
# [8] = Volume of distribution at steady state in BALB/c mouse plasma at 1 mg/kg, iv followed by po dosing at 3 mg/kg by LC-MS/MS analysis; assay type: ADME, organism-based; details: read-out: Vdss
# [9] = Total clearance in BALB/c mouse plasma at 1 mg/kg, iv followed by po dosing at 3 mg/kg by LC-MS/MS analysis; assay type: ADME, organism-based
# [10] = Oral bioavailability in BALB/c mouse plasma at 3 mg/kg by LC-MS/MS analysis; assay type: ADME, organism-based
# [11] = target: Phosphatidylinositol 4,5-bisphosphate 3-kinase catalytic subunit gamma isoform (Homo sapiens, UniProt P48736); experiment: Inhibition of recombinant human full length N-terminal His-tagged PI3Kgamma expressed in Sf9 insect cells using PIP2 as substrate after 35 to 40 mins by HTRF assay
# Sequence of Phosphatidylinositol 4,5-bisphosphate 3-kinase catalytic subunit gamma isoform (P48736 whole entry, canonical isoform): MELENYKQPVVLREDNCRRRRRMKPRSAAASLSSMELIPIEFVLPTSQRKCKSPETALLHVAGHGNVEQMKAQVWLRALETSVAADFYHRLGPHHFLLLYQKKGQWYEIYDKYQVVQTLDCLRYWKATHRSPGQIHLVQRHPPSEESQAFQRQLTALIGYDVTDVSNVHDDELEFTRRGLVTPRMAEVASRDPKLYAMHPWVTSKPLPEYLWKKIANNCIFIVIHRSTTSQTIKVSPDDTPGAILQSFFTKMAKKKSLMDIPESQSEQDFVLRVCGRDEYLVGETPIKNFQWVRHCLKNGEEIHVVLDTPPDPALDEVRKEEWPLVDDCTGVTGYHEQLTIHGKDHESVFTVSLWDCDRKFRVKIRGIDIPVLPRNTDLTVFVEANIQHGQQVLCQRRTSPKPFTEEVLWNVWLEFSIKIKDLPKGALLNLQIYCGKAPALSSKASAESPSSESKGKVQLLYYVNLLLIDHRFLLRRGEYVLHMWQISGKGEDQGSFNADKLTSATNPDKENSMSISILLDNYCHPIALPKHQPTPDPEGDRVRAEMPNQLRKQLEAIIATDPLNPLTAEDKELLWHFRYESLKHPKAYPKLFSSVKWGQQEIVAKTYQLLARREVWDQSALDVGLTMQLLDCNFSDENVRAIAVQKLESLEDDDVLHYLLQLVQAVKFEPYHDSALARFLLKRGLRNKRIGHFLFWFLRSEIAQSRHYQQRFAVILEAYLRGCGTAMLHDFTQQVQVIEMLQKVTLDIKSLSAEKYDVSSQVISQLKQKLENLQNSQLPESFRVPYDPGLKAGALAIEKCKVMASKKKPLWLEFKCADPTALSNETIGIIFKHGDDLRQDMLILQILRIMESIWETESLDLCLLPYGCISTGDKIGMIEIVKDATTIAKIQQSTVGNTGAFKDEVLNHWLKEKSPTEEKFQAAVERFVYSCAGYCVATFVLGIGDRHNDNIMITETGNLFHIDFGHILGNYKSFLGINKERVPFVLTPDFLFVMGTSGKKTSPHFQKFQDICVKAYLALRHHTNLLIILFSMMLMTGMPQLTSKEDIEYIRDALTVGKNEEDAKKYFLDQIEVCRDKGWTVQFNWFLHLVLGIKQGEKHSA
# [12] = target: PI3-kinase p110-alpha/p85-alpha (Homo sapiens, UniProt P42336); experiment: Inhibition of recombinant human N-terminal His6-tagged full length PI3K p110alpha/untagged recombinant full length human p85alpha expressed in baculovirus infected Sf21 insect cells using phosphatidylinositol as substrate after 3 hrs by kinase glo reagent based luminescence assay
# Sequence of PI3-kinase p110-alpha/p85-alpha (P27986 whole entry): as the sequence (P27986 whole entry) above
# Sequence of PI3-kinase p110-alpha/p85-alpha (P42336 whole entry): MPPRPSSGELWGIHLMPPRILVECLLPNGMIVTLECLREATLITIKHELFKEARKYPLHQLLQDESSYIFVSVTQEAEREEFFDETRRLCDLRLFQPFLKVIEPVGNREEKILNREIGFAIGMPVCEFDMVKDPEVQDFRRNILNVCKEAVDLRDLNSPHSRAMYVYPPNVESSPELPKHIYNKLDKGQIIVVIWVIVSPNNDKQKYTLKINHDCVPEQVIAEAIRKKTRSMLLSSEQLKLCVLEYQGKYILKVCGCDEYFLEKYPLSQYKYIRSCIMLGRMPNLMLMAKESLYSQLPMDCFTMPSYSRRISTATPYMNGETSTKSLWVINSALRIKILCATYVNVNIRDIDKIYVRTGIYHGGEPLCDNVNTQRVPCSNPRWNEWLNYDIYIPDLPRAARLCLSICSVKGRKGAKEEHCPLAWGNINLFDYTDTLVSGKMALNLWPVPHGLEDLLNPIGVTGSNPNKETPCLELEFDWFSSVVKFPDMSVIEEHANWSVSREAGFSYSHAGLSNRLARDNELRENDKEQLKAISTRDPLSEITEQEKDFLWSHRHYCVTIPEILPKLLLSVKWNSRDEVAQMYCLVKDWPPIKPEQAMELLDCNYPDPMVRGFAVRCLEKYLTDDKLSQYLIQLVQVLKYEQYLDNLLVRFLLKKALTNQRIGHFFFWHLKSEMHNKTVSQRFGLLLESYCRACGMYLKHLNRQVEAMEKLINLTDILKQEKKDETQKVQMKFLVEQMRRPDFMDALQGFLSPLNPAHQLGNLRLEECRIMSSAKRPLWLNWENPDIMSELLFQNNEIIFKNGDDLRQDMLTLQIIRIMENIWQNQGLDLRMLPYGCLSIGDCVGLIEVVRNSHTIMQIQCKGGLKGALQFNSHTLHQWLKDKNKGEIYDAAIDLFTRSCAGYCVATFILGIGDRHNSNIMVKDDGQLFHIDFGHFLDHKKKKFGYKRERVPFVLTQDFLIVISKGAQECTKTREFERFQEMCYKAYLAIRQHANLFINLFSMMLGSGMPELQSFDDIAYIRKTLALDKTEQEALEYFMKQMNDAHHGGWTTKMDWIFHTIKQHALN
structure (smiles),measurement,setting,value
COc1ncc(-c2cc(NC(=O)c3coc(CN4CCN(Cc5cccnc5)CC4)n3)c3cnn(C)c3n2)cc1NS(C)(=O)=O,"remaining at 16 h, 2 µM",[1],90.3%
same,"remaining at 16 h, 2 µM",[2],0.5%
same,Ratio IC50,Homo sapiens,290
same,IC50,[3],0.75 nM
COc1ncc(-c2cc(O[C@@H]3CCN(Cc4c(C)nn(C)c4C)C3)c3cnn(C)c3n2)cc1NS(C)(=O)=O,IC50,PI3K p110 beta/p85 alpha,520 nM
same,AUC,[4],346 ng·h/mL
same,Cmax,[5],298 ng/mL
same,Tmax,[6],15 min
same,half-life,[7],84.6 min
same,Vd,[8],2.82 L/kg
same,clearance,[9],68.3 mL/min/kg
same,Ratio IC50,Homo sapiens,320
same,IC50,[3],4.5 nM
same,bioavailability,[10],49%
same,IC50,[11],> 10000 nM
COc1ncc(-c2cc(O[C@@H]3CCN(C4CCOCC4)C3)c3cnn(C)c3n2)cc1NS(C)(=O)=O,Ratio IC50,Homo sapiens,21
same,IC50,[3],52 nM
COc1ncc(-c2cc(O[C@@H]3CCN(C(=O)C4CCOCC4)C3)c3cnn(C)c3n2)cc1NS(C)(=O)=O,AUC,[4],1640 ng·h/mL
same,Cmax,[5],861 ng/mL
same,Tmax,[6],15 min
same,half-life,[7],151 min
same,Vd,[8],2.37 L/kg
same,clearance,[9],24.5 mL/min/kg
same,"remaining at 16 h, 2 µM",[2],109%
same,Ratio IC50,Homo sapiens,92
same,IC50,[3],5.3 nM
same,bioavailability,[10],71.1%
COc1ncc(-c2cc(O[C@@H]3CCN(Cc4cnn(C)c4)C3)c3cnn(C)c3n2)cc1NS(C)(=O)=O,Ratio IC50,Homo sapiens,71
same,IC50,[3],8.2 nM
COc1ncc(-c2cc(N[C@@H]3CCN(C(=O)C4CCOCC4)C3)c3cnn(C)c3n2)cc1NS(C)(=O)=O,Ratio IC50,Homo sapiens,3.2
same,IC50,[3],110 nM
COc1ncc(-c2cc(NC(=O)c3coc(CN4CCN(CCN5CCOCC5)CC4)n3)c3cnn(C)c3n2)cc1NS(C)(=O)=O,"remaining at 16 h, 2 µM",[1],92.3%
same,"remaining at 16 h, 2 µM",[2],17.6%
same,Ratio IC50,Homo sapiens,250
same,IC50,[3],3.3 nM
COc1ncc(-c2cc(O[C@@H]3CCN(C(=O)c4ccccc4)C3)c3cnn(C)c3n2)cc1NS(C)(=O)=O,Ratio IC50,Homo sapiens,5.3
same,IC50,[3],16 nM
COc1ncc(-c2cc(O[C@@H]3CCN(CC4CCOCC4)C3)c3cnn(C)c3n2)cc1NS(C)(=O)=O,Ratio IC50,Homo sapiens,29
same,IC50,[3],18 nM
COc1ncc(-c2cc(O[C@@H]3CCN(C(=O)CC4CCOCC4)C3)c3cnn(C)c3n2)cc1NS(C)(=O)=O,Ratio IC50,Homo sapiens,17
same,IC50,[3],36 nM
COc1ncc(-c2cc(O[C@@H]3CCN(Cc4ccccc4)C3)c3cnn(C)c3n2)cc1NS(C)(=O)=O,Ratio IC50,Homo sapiens,160
same,IC50,[3],4.5 nM
COc1ncc(-c2cc(O[C@@H]3CCN(S(=O)(=O)C4CCOCC4)C3)c3cnn(C)c3n2)cc1NS(C)(=O)=O,Ratio IC50,Homo sapiens,2
same,IC50,[3],38 nM
COc1ncc(-c2cc(NC(=O)c3coc(CN4CCN(C(C)C)CC4)n3)c3cnn(C)c3n2)cc1NS(C)(=O)=O,AUC,[4],45.6 ng·h/mL
same,Cmax,[5],19.9 ng/mL
same,Tmax,[6],120 min
same,half-life,[7],22 min
same,Vd,[8],4.03 L/kg
same,clearance,[9],170 mL/min/kg
same,"remaining at 16 h, 2 µM",[1],79.7%
same,"remaining at 16 h, 2 µM",[2],0.4%
same,Ratio IC50,Homo sapiens,40
same,IC50,[3],8.4 nM
same,IC50,[12],330 nM
same,bioavailability,[10],16%
COc1ncc(-c2cc(N(C)[C@@H]3CCN(C(=O)C4CCOCC4)C3)c3cnn(C)c3n2)cc1NS(C)(=O)=O,IC50,[3],230 nM
COc1ncc(-c2cc(O[C@H]3CCN(C(=O)C4CCOCC4)C3)c3cnn(C)c3n2)cc1NS(C)(=O)=O,Ratio IC50,Homo sapiens,13
same,IC50,[3],53 nM
COc1ncc(-c2cc(O[C@@H]3CCN(C(=O)C4(C)CCOCC4)C3)c3cnn(C)c3n2)cc1NS(C)(=O)=O,IC50,[3],18 nM
